Reference: PubChem BioAssay AID248 (DTP/NCI, 2004)
Where “and” joins values, the source holds several entries; their conditions need not be identical. Equal entries are not always repeated. Inconclusive results and toxic doses are left out. No stated cut-off is given here; in the data, active means T/C of 150% or more; inactive means T/C below 125%.

Test system: L1210 leukemia ip in BDF1 mice, survival T/C
Experiment: NCI In Vivo Anticancer Drug Screen. Data for tumor model L1210 Leukemia (intraperitoneal) in B6D2F1 (BDF1) mice
Settings: endpoint: mean survival time, higher = longer survival
Outline: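 Antitumor effect is assessed in tumor-bearing animals. Survival in the compound arm is compared with a vehicle-dosed control arm and expressed as their quotient.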

[1] = dose: 50.0 mg/kg/injection, schedule: Q01DX009 (ip), vehicle: saline with Tween-80
[2] = dose: 100.0 mg/kg/injection, schedule: Q01DX009 (ip), vehicle: saline with Tween-80
[3] = dose: 200.0 mg/kg/injection, schedule: Q01DX009 (ip), vehicle: saline with Tween-80
[4] = dose: 100.0 mg/kg/injection, schedule: Q01DX009 (ip), vehicle: Klucel (hydroxypropylcellulose) (HPC)
[5] = dose: 100.0 mg/kg/injection, schedule: Q04DX003 (ip), vehicle: Klucel (hydroxypropylcellulose) (HPC)
[6] = dose: 200.0 mg/kg/injection, schedule: Q01DX009 (ip), vehicle: Klucel (hydroxypropylcellulose) (HPC)
[7] = dose: 200.0 mg/kg/injection, schedule: Q04DX003 (ip), vehicle: Klucel (hydroxypropylcellulose) (HPC)
[8] = dose: 400.0 mg/kg/injection, schedule: Q01DX009 (ip), vehicle: Klucel (hydroxypropylcellulose) (HPC)
[9] = dose: 400.0 mg/kg/injection, schedule: Q04DX003 (ip), vehicle: Klucel (hydroxypropylcellulose) (HPC)
[10] = dose: 100.0 mg/kg/injection, schedule: Q01DX001 (ip), vehicle: saline with Tween-80
[11] = dose: 100.0 mg/kg/injection, schedule: Q04DX002 (ip), vehicle: saline with Tween-80
[12] = dose: 200.0 mg/kg/injection, schedule: Q01DX001 (ip), vehicle: saline with Tween-80
[13] = dose: 200.0 mg/kg/injection, schedule: Q04DX002 (ip), vehicle: saline with Tween-80
[14] = dose: 400.0 mg/kg/injection, schedule: Q01DX001 (ip), vehicle: saline with Tween-80
[15] = dose: 400.0 mg/kg/injection, schedule: Q01DX009 (ip), vehicle: saline with Tween-80
[16] = dose: 400.0 mg/kg/injection, schedule: Q04DX002 (ip), vehicle: saline with Tween-80
[17] = dose: 50.0 mg/kg/injection, schedule: Q01DX009 (ip), vehicle: Klucel (hydroxypropylcellulose) (HPC)
[18] = dose: 100.0 mg/kg/injection, schedule: Q04DX003 (ip), vehicle: saline with Tween-80
[19] = dose: 200.0 mg/kg/injection, schedule: Q04DX003 (ip), vehicle: saline with Tween-80
[20] = dose: 400.0 mg/kg/injection, schedule: Q04DX003 (ip), vehicle: saline with Tween-80
[21] = dose: 100.0 mg/kg/injection, schedule: Q01DX001 (ip), vehicle: saline
[22] = dose: 200.0 mg/kg/injection, schedule: Q01DX001 (ip), vehicle: saline
[23] = dose: 400.0 mg/kg/injection, schedule: Q01DX001 (ip), vehicle: saline

Measured: T/C

Cc1ccc(NC(=O)OCCOc2ccc(Cl)cc2Cl)cc1[N+](=O)[O-]
inactive: [1] 97 % of control | [2] 104 % of control | [3] 104 % of control

Cc1cccc(C)c1NC(=O)Nc1ccc(S(N)(=O)=O)cc1
inactive: [4] 100 % of control | [5] 101 % of control | [6] 95 % of control and 97 % of control | [7] 94 % of control | [8] 100 % of control and 88 % of control | [9] 92 % of control

CCCC(=O)Nc1cc(C)ccc1OC
inactive: [10] 94 % of control | [2] 101 % of control and 90 % of control | [11] 103 % of control and 92 % of control | [12] 98 % of control | [3] 101 % of control and 106 % of control | [13] 97 % of control and 92 % of control | [14] 94 % of control | [15] 97 % of control and 87 % of control | [16] 95 % of control and 98 % of control

CCC(Br)C(=O)Nc1c(C)cccc1Cl (stereo not given)
inactive: dose: 25.0 mg/kg/injection, schedule: Q01DX009 (ip), vehicle: Klucel (hydroxypropylcellulose) (HPC) 97 % of control | [17] 98 % of control | [4] 94 % of control and 101 % of control | [5] 97 % of control | [7] 95 % of control | [9] 97 % of control

O=c1c2ccccc2[nH]c2ccc(-n3nnc4ccccc4c3=O)cc12
inactive: dose: 6.0 mg/kg/injection, schedule: Q04DX003 (ip), vehicle: saline 103 % of control | dose: 12.0 mg/kg/injection, schedule: Q04DX003 (ip), vehicle: saline 89 % of control | dose: 25.0 mg/kg/injection, schedule: Q04DX003 (ip), vehicle: saline 94 % of control

Cc1cccc(CN)n1
inactive: dose: 50.0 mg/kg/injection, schedule: Q01DX009 (ip), vehicle: saline 98 % of control | dose: 100.0 mg/kg/injection, schedule: Q01DX009 (ip), vehicle: saline 98 % of control | dose: 100.0 mg/kg/injection, schedule: Q04DX003 (ip), vehicle: saline 104 % of control | dose: 200.0 mg/kg/injection, schedule: Q01DX009 (ip), vehicle: saline 97 % of control | dose: 200.0 mg/kg/injection, schedule: Q04DX003 (ip), vehicle: saline 104 % of control

N#C/C(=C\C=C\c1ccccc1)C(N)=O
inactive: [1] 102 % of control | [2] 96 % of control | [18] 96 % of control | [3] 101 % of control | [19] 100 % of control

COc1ccccc1-n1c(O)c(N=Nc2ccccc2C)c(=O)n(-c2ccccc2OC)c1=S
inactive: [5] 96 % of control | [7] 94 % of control | [9] 100 % of control

C=CC(=O)Nc1cccc(OC(=O)NC(C)C)c1
inactive: [18] 89 % of control | [19] 97 % of control | [20] 103 % of control

O=C1C2CC=C(c3ccccc3)C1CCC2 (stereo not given)
inactive: dose: 75.0 mg/kg/injection, schedule: Q01DX001 (ip), vehicle: other 103 % of control | dose: 150.0 mg/kg/injection, schedule: Q01DX001 (ip), vehicle: other 97 % of control | dose: 300.0 mg/kg/injection, schedule: Q01DX001 (ip), vehicle: other 102 % of control

COc1cc2c(c(OC)c1OC)-c1ccc(SC)c(=O)cc1C(N=Cc1ccccc1)CC2 (stereo not given)
inactive: [18] 106 % of control | [19] 90 % of control

Oc1cccc2cccnc12.[Al]
inactive: dose: 10.0 mg/kg/injection, schedule: Q01DX Z (ip), vehicle: carboxymethylcellulose (CMC) 93 % of control | dose: 20.0 mg/kg/injection, schedule: Q01DX Z (ip), vehicle: carboxymethylcellulose (CMC) 97 % of control | dose: 40.0 mg/kg/injection, schedule: Q01DX Z (ip), vehicle: carboxymethylcellulose (CMC) 93 % of control | [17] 94 % of control | dose: 50.0 mg/kg/injection, schedule: Q04DX003 (ip), vehicle: Klucel (hydroxypropylcellulose) (HPC) 101 % of control | [4] 100 % of control | [5] 102 % of control | [6] 96 % of control | [7] 101 % of control

CCCc1cnc(NCCCC(N)C(=O)O)nc1 (stereo not given)
inactive: dose: 25.0 mg/kg/injection, schedule: Q04DX002 (ip), vehicle: saline 95 % of control | dose: 50.0 mg/kg/injection, schedule: Q04DX002 (ip), vehicle: saline 95 % of control | dose: 100.0 mg/kg/injection, schedule: Q04DX002 (ip), vehicle: saline 89 % of control

CC(=O)Oc1cc(NC(=O)c2ccccc2)ccc1NC(=O)c1ccccc1
inactive: dose: 100.0 mg/kg/injection, schedule: Q01DX001 (ip), vehicle: Klucel (hydroxypropylcellulose) (HPC) 93 % of control | [4] 89 % of control | dose: 200.0 mg/kg/injection, schedule: Q01DX001 (ip), vehicle: Klucel (hydroxypropylcellulose) (HPC) 92 % of control | [6] 90 % of control | dose: 400.0 mg/kg/injection, schedule: Q01DX001 (ip), vehicle: Klucel (hydroxypropylcellulose) (HPC) 104 % of control | [8] 100 % of control

CCCCCCCCCCCCCCCCS(=O)(=O)c1ccc(S(=O)(=O)CS(C)(=O)=O)cc1[N+](=O)[O-]
inactive: dose: 100.0 mg/kg/injection, schedule: Q01DX001 (ip), vehicle: other 98 % of control | dose: 200.0 mg/kg/injection, schedule: Q01DX001 (ip), vehicle: other 91 % of control

Cc1c(C(=O)O)nnn1-c1ccc(Cl)cc1Cl
inactive: dose: 100.0 mg/kg/injection, schedule: Q04DX002 (ip), vehicle: Klucel (hydroxypropylcellulose) (HPC) 97 % of control | dose: 200.0 mg/kg/injection, schedule: Q04DX002 (ip), vehicle: Klucel (hydroxypropylcellulose) (HPC) 101 % of control

CC(=O)Nc1nc(-c2ccc([N+](=O)[O-])cc2)c(CCC=O)c(=O)[nH]1
inactive: [4] 88 % of control | [5] 90 % of control | [6] 94 % of control | [7] 98 % of control | [8] 102 % of control | [9] 98 % of control

Cc1ccc(C)c(Br)c1C
inactive: [2] 104 % of control | [11] 104 % of control | [3] 104 % of control | [13] 101 % of control | [15] 101 % of control | [16] 101 % of control

O=[N+]([O-])c1ccc(N2CCOCC2)c2c1no[n+]2[O-]
inactive: dose: 12.5 mg/kg/injection, schedule: Q04DX003 (ip), vehicle: saline with Tween-80 108 % of control | dose: 25.0 mg/kg/injection, schedule: Q04DX003 (ip), vehicle: saline with Tween-80 118 % of control | dose: 50.0 mg/kg/injection, schedule: Q04DX003 (ip), vehicle: saline with Tween-80 116 % of control

CCOC(=S)SCC(=O)c1cccc([N+](=O)[O-])c1
inactive: [21] 107 % of control | [22] 103 % of control | [23] 101 % of control

O=C(O)c1ccc(NC(=O)c2ccc3ccccc3c2O)cc1
inactive: [10] 104 % of control | [2] 109 % of control | [18] 102 % of control | [12] 103 % of control | [3] 110 % of control | [19] 100 % of control | [14] 101 % of control | [20] 96 % of control

Cc1ccc(C(=O)N/N=C/C(CC(O)C(O)CO)=N/NC(=O)c2ccc(C)cc2)cc1 (stereo not given)
inactive: dose: 100.0 mg/kg/injection, schedule: Q04DX003 (ip), vehicle: alcohol 93 % of control | dose: 200.0 mg/kg/injection, schedule: Q04DX003 (ip), vehicle: alcohol 96 % of control

c1ccc(C2c3cccc4c3C3c5c2cccc5C(c2ccccc2)c2cccc(c23)C4c2ccccc2)cc1 (stereo not given)
inactive: [18] 108 % of control | [19] 95 % of control | [20] 100 % of control

COC(=O)c1cc(C)cc(Oc2ccccc2[N+](=O)[O-])c1C
inactive: [21] 96 % of control | [22] 98 % of control | [23] 98 % of control

CC12CCC(O)CC1CCC1C3CC/C(=C\c4ccco4)C(=O)C3(CCC#N)CCC12 (stereo not given)
inactive: dose: 100.0 mg/kg/injection, schedule: Q01DX001 (sc), vehicle: steriod suspending solution 108 % of control | dose: 200.0 mg/kg/injection, schedule: Q01DX001 (sc), vehicle: steriod suspending solution 106 % of control | dose: 400.0 mg/kg/injection, schedule: Q01DX001 (sc), vehicle: steriod suspending solution 106 % of control

Cc1cccc(C(C#N)(CCC#N)N2CCOCC2)n1 (stereo not given)
inactive: [1] 91 % of control | [2] 98 % of control | [3] 94 % of control
